Consider 47 compounds from US20110124501A1, “Active compound combinations” (Bayer CropScience AG, priority 2009, published 2011).

Where “and” joins values, the source holds several entries; their conditions need not be identical. Identical values can stand only once. Counter-ions that a name gives are not always drawn. Like-named read-outs stand apart in the source and are kept apart here.

Test [1] has as its system Leptosphaeria nodorum. In words: Leptosphaeria nodorum test (wheat)/preventive. It counts as in vivo. To be noted: preventive, evaluated 8 days after inoculation.
In test [2] the test system is Septoria tritici. In words: Septoria tritici-test (wheat)/preventive. The conditions noted are these: preventive, evaluated 21 days after inoculation. It counts as in vivo.
Test [3] deals with Phytophthora infestans. It counts as in vivo.
Test [4] has as its system Botrytis cinerea. In words: Botrytis test (beans)/preventive.
Description: Botrytis Test (Beans)/Preventive
(§1) • Solvent: 24.5 parts by weight of acetone • 24.5 parts by weight of dimethylacetamide • Emulsifier: 1 part by weight of alkylaryl polyglycol ether
After the spray coating has dried on, 2 small pieces of agar covered with growth of Botrytis cinerea are placed on each leaf. The inoculated plants are placed in a darkened chamber at 20° C. and a relative atmospheric humidity of 100%.
2 days after the inoculation, the size of the lesions on the leaves is evaluated.
Test [5] deals with Sphaerotheca fuliginea. The test can be described thus: Sphaerotheca test (cucumbers)/preventive. The test is classed as in vivo.
For test [6], the system named is Venturia inaequalis. In words: Venturia test (apples)/preventive.
Description: Venturia Test (Apples)/Preventive
as §1
After the spray coating has dried on, the plants are inoculated with an aqueous conidia suspension of the causal agent of apple scab (Venturia inaequalis) and then remain for 1 day in an incubation cabinet at approximately 20° C. and a relative atmospheric humidity of 100%.
The plants are then placed in a greenhouse at approximately 21° C. and a relative atmospheric humidity of approximately 90%.
The test is evaluated 10 days after the inoculation.
Test [7] has as its system Alternaria solani. In words: Alternaria test (tomatoes)/preventive. The test is classed as in vivo.
Test [8] deals with Pyrenophora teres. The test can be described thus: Pyrenophora teres-test (barley)/preventive. The conditions noted are these: preventive, evaluated 8 days after inoculation. The test is classed as in vivo.
In test [9] the test system is Blumeria graminis fsp. hordei. In words: Blumeria test (barley)/preventive. It counts as in vivo. From the text: After the spray coating has been dried, the plants are dusted with spores of Blumeria graminis fsp. hordei.
Test [10] concerns Plasmopara viticola. In words: Plasmopara test (grapevines)/preventive. The test is classed as in vivo.
Test [11] deals with Puccinia triticina. The test can be described thus: Puccinia triticina-test (wheat)/preventive. It counts as in vivo. To be noted: preventive, evaluated 8 days after inoculation.

In the case of `Fc1ccc([C@]2(Cn3cncn3)O[C@H]2c2ccccc2Cl)cc1` (racemic) [(1.12), epoxiconazole], the “Efficacy in % found” value in [1] (31.25 ppm a.i.) and in test [2] (62.5 ppm a.i.) was 71% each time.

Consider `C[C@@]1(c2ccc(Oc3ccccc3)cc2)OC(=O)N(Nc2ccccc2)C1=O` (racemic) [(3.6), famoxadone], for which the “Efficacy in % found” value in test [3] (application rate 0.4 ppm a.i.) was determined as 0%.

For the compound `CC1(C(=O)Nc2ccc(O)c(Cl)c2Cl)CCCCC1` [(1.16), fenhexamid], in [4] (application rate 10 ppm a.i.), the “Efficacy in % found” value was found to be 0%.

Turning to `O=c1c2cc(F)ccc2nc(-n2cncn2)n1-c1ccc(Cl)cc1Cl` [(1.19), fluquinconazole], the results for the “Efficacy in % found” value in test [5] (application rate 1 ppm a.i.), in [1] (31.25 ppm a.i.) and in [2] (62.5 ppm a.i.) were 78%, 43% and 86%, respectively.

Consider `Cn1cc(C(=O)Nc2ccc(F)cc2-c2ccc(Cl)c(Cl)c2)c(C(F)F)n1` [(2.2), bixafen], for which the “Efficacy in % found” value in [6] (application rate 1 ppm a.i.) amounted to 64%.

In the case of `O=C(NCCc1ncc(C(F)(F)F)cc1Cl)c1ccccc1C(F)(F)F` [(2.6), fluopyram], the “Efficacy in % found” value is listed as 55% in [7] (application rate 1 ppm a.i.); 0% in test [5] (application rate 4 ppm a.i.); 88% in [8] (31.25 ppm a.i.); 80% in test [2] (31.25 ppm a.i.); 28% in test [6] (application rate 2 ppm a.i.).

Regarding `CC(C)C1C2CCC1c1c(NC(=O)c3cn(C)nc3C(F)F)cccc12` (stereo not drawn) [(2.10), isopyrazam], the entries for the “Efficacy in % found” value in test [7] (application rate 0.5 ppm a.i.) and in test [6] (application rate 1 ppm a.i.) were 50% and 49%, respectively.

As to `Cc1nn(C)c(F)c1C(=O)Nc1ccccc1C(C)CC(C)C` (stereo not drawn) [(2.19), penflufen], the “Efficacy in % found” value in [7] (application rate 1 ppm a.i.) is 30%; in [5] (application rate 4 ppm a.i.) it was 0%; in test [9] (application rate 125 ppm a.i.) it was 67% and 56%; in test [6] (application rate 4 ppm a.i.), 0%.

Take `CC(C)CC(C)c1sccc1NC(=O)c1cn(C)nc1C(F)(F)F` (stereo not drawn) [(2.20), penthiopyrad]: the entries for the “Efficacy in % found” value in [7] (application rate 0.5 ppm a.i.) and in test [6] (application rate 2 ppm a.i.) were 53% and 41%, respectively.

For the compound `Cn1cc(C(=O)Nc2ccccc2C2CC2C2CC2)c(C(F)F)n1` (stereo not drawn) [(2.21), sedaxane], the “Efficacy in % found” value is 40% in test [7] (application rate 1 ppm a.i.) and 69% in test [6] (application rate 2 ppm a.i.).

With `Cn1cc(C(=O)Nc2ccccc2-c2cc(F)c(F)c(F)c2)c(C(F)F)n1` [(2.45), 3-(difluoromethyl)-1-methyl-N-(3′,4′,5′-trifluorobiphenyl-2-yl)-1H-pyrazole-4-carboxamide], the “Efficacy in % found” value in [5] (application rate 2 ppm a.i.) came out at 30%.

On to `CO/C=C(/C(=O)OC)c1ccccc1Oc1cc(Oc2ccccc2C#N)ncn1` [(3.2), azoxystrobin], for which the “Efficacy in % found” value in [7] (application rate 0.25 ppm a.i.) is reported as 50%; in test [5] (application rate 1 ppm a.i.) it was 10%; in test [1] (31.25 ppm a.i.) it was 67%; in test [1] (62.5 ppm a.i.), 86%.

Regarding `Cc1ccc(-c2c(Cl)nc(C#N)n2S(=O)(=O)N(C)C)cc1` [(3.3), cyazofamid], the “Efficacy in % found” value in [10] (application rate 0.4 ppm a.i.) is recorded as 0%.

In the case of `CSC1=N[C@@](C)(c2ccccc2)C(=O)N1Nc1ccccc1` [(3.7), fenamidone], the “Efficacy in % found” value in [3] (application rate 0.2 ppm a.i.) is on record as 0%.

For the compound `CO/N=C(/C1=NOCCO1)c1ccccc1Oc1ncnc(Oc2ccccc2Cl)c1F` [(3.8), fluoxastrobin], the “Efficacy in % found” value was 70% in [7] (application rate 2 ppm a.i.), 71% in [1] (31.25 ppm a.i.), 71% in test [2] (62.5 ppm a.i.) and 88% in test [6] (application rate 0.5 ppm a.i.).

For the compound `COC(=O)N(OC)c1ccccc1COc1ccn(-c2ccc(Cl)cc2)n1` [(3.13), pyraclostrobin], the “Efficacy in % found” value in test [5] (application rate 1 ppm a.i.) is recorded as 0%; in test [1] (31.25 ppm a.i.), 57%; in test [11] (62.5 ppm a.i.) it was 63%.

In the case of `CON=C(C(=O)OC)c1ccccc1CON=C(C)c1cccc(C(F)(F)F)c1` [(3.17), trifloxystrobin], the “Efficacy in % found” value in test [7] (application rate 2 ppm a.i.) is listed as 60%; in test [5] (application rate 2 ppm a.i.), 27%; in test [8] (62.5 ppm a.i.) it was 75%; in [11] (62.5 ppm a.i.), 78%.

Take `CCC(C)(NC(=O)c1cc(Cl)c(C)c(Cl)c1)C(=O)CCl` (stereo not drawn) [(4.9), zoxamide]: the “Efficacy in % found” value in test [10] (application rate 0.4 ppm a.i.) was 0%.

As for `N#Cc1c(Cl)c(Cl)c(Cl)c(C#N)c1Cl` [(5.4), chlorothalonil], the “Efficacy in % found” value in test [7] (application rate 50 ppm a.i.) was determined as 24%; in test [6] (application rate 25 ppm a.i.), 83%.

With `O=C1c2ccccc2C(=O)N1SC(Cl)(Cl)Cl` [(5.9), folpet], the “Efficacy in % found” value in [4] (application rate 12.5 ppm a.i.) is 11%.

In the case of `[Cl-].[Cu+2].[Cu+2].[OH-].[OH-].[OH-]` [(5.15), copper oxychloride], the “Efficacy in % found” value in [7] (application rate 50 ppm a.i.) worked out at 41%; in test [6] (application rate 50 ppm a.i.), 40%.

For `[Cu+2].[OH-].[OH-]` [(5.16), copper hydroxide], the “Efficacy in % found” value turned out to be 47% in test [7] (application rate 50 ppm a.i.) and 57% in [6] (application rate 25 ppm a.i.).

With `Cc1cc(C)nc(Nc2ccccc2)n1` [(7.7), pyrimethanil], the “Efficacy in % found” value in test [4] (application rate 50 ppm a.i.) was 11%.

Turning to `COc1ccc(C(=CC(=O)N2CCOCC2)c2ccc(Cl)cc2)cc1OC` [(9.2), dimethomorph], in test [10] (application rate 0.2 ppm a.i.), the “Efficacy in % found” value amounted to 0%.

Regarding `Cc1ccc(C(C)NC(=O)[C@@H](NC(=O)OC(C)C)C(C)C)cc1` (stereo partly drawn) [(9.4), iprovalicarb], the “Efficacy in % found” value in test [10] (application rate 0.4 ppm a.i.) came out at 0%.

For the compound `C#CCOc1ccc(CCNC(=O)C(OCC#C)c2ccc(Cl)cc2)cc1OC` (stereo not drawn) [(9.5), mandipropamid], the “Efficacy in % found” value in test [10] (application rate 0.1 ppm a.i.) was found to be 14%; in test [10] (application rate 0.2 ppm a.i.), 25%.

For `CCCOC(=O)NCCCN(C)C` [(10.11), propamocarb-hydrochloride], the “Efficacy in % found” value in [3] (application rate 10 ppm a.i.) was 0%.

For `COC(=O)[C@@H](C)N(C(=O)Cc1ccccc1)c1c(C)cccc1C` [(12.2), benalaxyl-M], the “Efficacy in % found” value in [10] (application rate 0.2 ppm a.i.) and in test [10] (application rate 0.4 ppm a.i.) was 0% each time.

With `COCC(=O)N(c1c(C)cccc1C)[C@H](C)C(=O)OC` [(12.10), metalaxyl-M], the “Efficacy in % found” value in test [10] (application rate 0.4 ppm a.i.) amounted to 57%.

On to `O=[N+]([O-])c1cc(C(F)(F)F)c(Cl)c([N+](=O)[O-])c1Nc1ncc(C(F)(F)F)cc1Cl` [(14.2), fluazinam], for which, in test [3] (application rate 0.5 ppm a.i.), the “Efficacy in % found” value amounted to 0%.

On to `CCCCCCCCc1c(CC)nc2ncnn2c1N` [(15.1), ametoctradin], for which the “Efficacy in % found” value in test [3] (application rate 0.5 ppm a.i.) came to 0%.

`CCNC(=O)NC(=O)/C(C#N)=N/OC` [(15.7), cymoxanil]: the “Efficacy in % found” value in [3] (application rate 1 ppm a.i.) amounted to 0%.

`O=C(NCc1ncc(C(F)(F)F)cc1Cl)c1c(Cl)cccc1Cl` [(15.17), fluopicolide]: the “Efficacy in % found” value in test [10] (application rate 0.4 ppm a.i.) worked out at 43%.

In the case of `CCO[PH](=O)O` [(15.20), fosetyl-Al], the “Efficacy in % found” value in [3] (application rate 10 ppm a.i.) is 3%.

On to `C#CCCOC(=O)Nc1cccc(CO/N=C(/c2ccccc2)c2nnnn2C)n1` [(15.96), but-3-yn-1-yl {6-[({[(Z)-(1-methyl-1H-tetrazol-5-yl)(phenyl)methylene]amino}oxy)methyl]pyridin-2-yl}carbamate], for which the entries for the “Efficacy in % found” value in test [3] (application rate 0.2 ppm a.i.) and in test [10] (application rate 0.4 ppm a.i.) were 53% and 46%, respectively.

On to `O=C(OCc1c(F)cccc1Cl)c1csc(C2CCN(C(=O)Cn3nc(C(F)F)cc3C(F)F)CC2)n1` [(I-16)], for which the “Efficacy in % found” value is 70% in [3] (application rate 0.2 ppm a.i.); 61% and 74% in [3] (application rate 0.4 ppm a.i.); 29% in test [10] (application rate 0.2 ppm a.i.); 0% in test [10] (application rate 0.4 ppm a.i.); 30% in test [7] (application rate 25 ppm a.i.); 47% in [7] (application rate 200 ppm a.i.). Besides, the “Efficacy in % found” value was 30% in test [5] (application rate 25 ppm a.i.); 30% in test [5] (application rate 50 ppm a.i.); 0% in [9] (application rate 1000 ppm a.i.); 0% in [1] (1000 ppm a.i.); 0% in test [8] (500 ppm a.i.); 25% and 13% in [8] (1000 ppm a.i.). Further, the “Efficacy in % found” value in test [11] (500 ppm a.i.) worked out at 13%; in test [11] (1000 ppm a.i.), 38%; in test [4] (application rate 50 ppm a.i.), 0%; in [4] (application rate 200 ppm a.i.), 0%; in [6] (application rate 200 ppm a.i.), 33%.

As to boscalid [(2.3)], the “Efficacy in % found” value amounted to 38% in [11] (250 ppm a.i.) and 56% in [11] (500 ppm a.i.).

Take fenpiclonil [(13.1)]: the “Efficacy in % found” value was determined as 71% in test [1] (500 ppm a.i.) and 88% in test [8] (500 ppm a.i.).

For the compound fludioxonil [(13.2)], the “Efficacy in % found” value amounted to 43% in [1] (250 ppm a.i.), 88% in test [8] (125 ppm a.i.) and 15% in test [4] (application rate 10 ppm a.i.).

As to mancozeb [(5.19)], the “Efficacy in % found” value in [7] (application rate 12.5 ppm a.i.) amounted to 18%; in [7] (application rate 50 ppm a.i.) it was 76%; in test [6] (application rate 12.5 ppm a.i.), 53%.

On to “phosphorous acid and its salts [(15.62)]”, for which the “Efficacy in % found” value in [3] (application rate 10 ppm a.i.) is 19%.

With propiconazole [(1.40)], the “Efficacy in % found” value in [5] (application rate 2 ppm a.i.) and in test [11] (125 ppm a.i.) was 78% each time.

For propineb [(5.23)], in test [7] (application rate 50 ppm a.i.), the “Efficacy in % found” value worked out at 53%.

For prothioconazole [(1.41)], the “Efficacy in % found” value in test [5] (application rate 0.5 ppm a.i.) is 37%; in test [1] (62.5 ppm a.i.), 43%; in test [2] (125 ppm a.i.) it was 86%.

On to spiroxamine [(1.46)], for which the “Efficacy in % found” value in test [9] (application rate 250 ppm a.i.) amounted to 94%; in test [11] (500 ppm a.i.) it was 56%.

As to tebuconazole [(1.47)], the “Efficacy in % found” value worked out at 67% in test [5] (application rate 4 ppm a.i.), 38% in test [8] (125 ppm a.i.) and 43% in test [6] (application rate 4 ppm a.i.).

For triadimenol [(1.51)], the “Efficacy in % found” value in test [1] (250 ppm a.i.) is 50% and 43%.
